According to PubChem BioAssay AID1259407 (Chemical Carcinogenesis Research Information System (CCRIS), 2018):
The source made the active and inactive calls. The rule behind the calls is not given here.

System: CCRIS mutagenicity, Ames/micronucleus/aberration tests
Test: CCRIS mutagenicity studies

`O=P(OCCCl)(OCCCl)OCCCl` was tested, and the mutagenic call (End Point: IN VITRO CHROMOSOMAL ABERRATIONS, Test System: CHINESE HAMSTER OVARY CELLS, Metabolic Activation: NONE) was “inactive; negative”, the mutagenic call (End Point: IN VITRO CHROMOSOMAL ABERRATIONS, Test System: CHINESE HAMSTER OVARY CELLS, Metabolic Activation: RAT, LIVER, S-9, AROCLOR 1254) was “inactive; negative” and the mutagenic call (Test System: AMES SALMONELLA TYPHIMURIUM, Strain/Indicator: TA98, Metabolic Activation: HAMSTER, LIVER, S-9, AROCLOR 1254 (10%), Method: PREINCUBATION) was “inactive; negative”. For the same compound, the mutagenic call (Test System: AMES SALMONELLA TYPHIMURIUM, Strain/Indicator: TA98, Metabolic Activation: NONE, Method: PREINCUBATION) was “inactive; negative”, the mutagenic call (Test System: AMES SALMONELLA TYPHIMURIUM, Strain/Indicator: TA98, Metabolic Activation: RAT, LIVER, S-9, AROCLOR 1254 (10%), Method: PREINCUBATION) was “inactive; negative” and the mutagenic call (Test System: AMES SALMONELLA TYPHIMURIUM, Strain/Indicator: TA100, Metabolic Activation: HAMSTER, LIVER, S-9, AROCLOR 1254 (10%), Method: PREINCUBATION) was “inactive; negative”. The mutagenic call (Test System: AMES SALMONELLA TYPHIMURIUM, Strain/Indicator: TA100, Metabolic Activation: NONE, Method: PREINCUBATION) was “inactive; negative”, the mutagenic call (Test System: AMES SALMONELLA TYPHIMURIUM, Strain/Indicator: TA100, Metabolic Activation: RAT, LIVER, S-9, AROCLOR 1254 (10%), Method: PREINCUBATION) was “inactive; negative” and the mutagenic call (Test System: AMES SALMONELLA TYPHIMURIUM, Strain/Indicator: TA100, Metabolic Activation: RAT, LIVER, S-9, PCB, Method: STANDARD PLATE) was “active; positive”. For the same compound, the mutagenic call (Test System: AMES SALMONELLA TYPHIMURIUM, Strain/Indicator: TA1535, Metabolic Activation: HAMSTER, LIVER, S-9, AROCLOR 1254 (10%), Method: PREINCUBATION) was “inactive; negative”, the mutagenic call (Test System: AMES SALMONELLA TYPHIMURIUM, Strain/Indicator: TA1535, Metabolic Activation: NONE, Method: PREINCUBATION) was “inactive; negative” and the mutagenic call (Test System: AMES SALMONELLA TYPHIMURIUM, Strain/Indicator: TA1535, Metabolic Activation: RAT, LIVER, S-9, AROCLOR 1254 (10%), Method: PREINCUBATION) was “inactive; negative”. For the same compound, the mutagenic call (Test System: AMES SALMONELLA TYPHIMURIUM, Strain/Indicator: TA1535, Metabolic Activation: RAT, LIVER, S-9, PCB, Method: STANDARD PLATE) was “active; positive”, the mutagenic call (Test System: AMES SALMONELLA TYPHIMURIUM, Strain/Indicator: TA1537, Metabolic Activation: HAMSTER, LIVER, S-9, AROCLOR 1254 (10%), Method: PREINCUBATION) was “inactive; negative” and the mutagenic call (Test System: AMES SALMONELLA TYPHIMURIUM, Strain/Indicator: TA1537, Metabolic Activation: NONE, Method: PREINCUBATION) was “inactive; negative”. For the same compound, the mutagenic call (Test System: AMES SALMONELLA TYPHIMURIUM, Strain/Indicator: TA1537, Metabolic Activation: RAT, LIVER, S-9, AROCLOR 1254 (10%), Method: PREINCUBATION) was “inactive; negative”.

In the case of `Cn1c([N+](=O)[O-])nc2ccccc21`, the mutagenic call (Test System: AMES SALMONELLA TYPHIMURIUM, Strain/Indicator: TA98, Metabolic Activation: NONE, Method: STANDARD PLATE) is reported as “active; positive”.
